Entries after “also recorded” stand apart in the source; their conditions may differ.
Columns and labels:
Mrgprs = experiment: Calcium imaging of transfected HeLa cells, statements on Mrgprs not named singly; type: cell-based; settings: for inhibition of activation of Mrgprs by SP: FIG. 6a: cells pretreated with inhibitor 10 minutes
Protocol: They were then mixed and incubated at RT for 20 minutes prior to being added to HeLa cells. HeLa cells were grown to confluence, trypsinized and 1×10^6 cells were pelleted in a 15 ml tube by centrifugation at 1000 rpm for 5 minutes. The DMEM-LIPOFECTAMINE 2000-DNA mixture (1 ml) was then added to the cell pellet, suspended and incubated at RT for 5 minutes. 2 ml of complete DMEM with 10% FBS without antibiotics were added to the tube, mixed by inverting the tube, plated into a 96-well glass bottom plate at 50,000 cells/well, and placed in a 37° C. CO2 incubator for 3 hours. HeLa cells transfected with salmon sperm DNA were plated as a control. The medium was changed after 3 hours and left in the incubator. 24 hours after transfection, the medium in the wells was removed and 100 μl of complete DMEM containing 2 μM of FURA-2 were added to each well and left at room temperature in the dark for 1 hr. Following loading with FURA-2, the medium was removed, washed with PBS and replaced with 90 μl of HEPES-buffered saline (20 mM HEPES, 115 mM NaCl, 5.4 mM KCl, 2 mM CaCl2, 0.8 mM MgCl2, 13.8 mM glucose, pH 7.4). Calcium imaging was performed immediately after loading cells with Fura-2, using a ZEISS Axiovert 200M microscope platform equipped with a flipping filter wheel for ratiometric imaging. Axiovision software, version 4.6 was used for calcium image analysis of the cells excited at 340 nm and 380 nm. Agonists were added at 15 seconds after the start of the excitation procedure. […] The software later analyzed all images taken during each excitation period. Ratiometric changes were measured in 10-20 cells in each individual experiment. An average of the fluorescence of the cells in each image was calculated and plotted against time in seconds.

MrgX2 (human MRGPRX2) = target: T1, MrgX2 (human MRGPRX2) (Homo sapiens, UniProt Q96LB1); experiment: Calcium imaging of cells transfected with the GPCR (Table 1); type: cell-based; settings: for inhibition of SP-induced activation of human MRGPRX2: FIG. 6a: SP 500 nM, inhibitors 1 μM, FK888 10 μM
T1 construct: expressed in transfected cells; host or cells: HeLa cells, pcDNA3.1(-)
T1 sequence (Q96LB1 1-330): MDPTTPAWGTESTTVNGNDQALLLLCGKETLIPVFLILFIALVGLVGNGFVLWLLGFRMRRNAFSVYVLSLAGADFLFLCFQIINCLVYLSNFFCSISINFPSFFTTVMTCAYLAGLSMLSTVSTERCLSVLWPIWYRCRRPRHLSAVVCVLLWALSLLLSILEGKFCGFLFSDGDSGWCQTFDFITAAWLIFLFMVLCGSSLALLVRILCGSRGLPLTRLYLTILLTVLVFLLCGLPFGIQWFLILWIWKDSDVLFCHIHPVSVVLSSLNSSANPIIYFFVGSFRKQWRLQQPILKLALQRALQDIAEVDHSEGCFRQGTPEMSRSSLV
Protocol: human MRGPRX2 was isolated by PCR from human genomic DNA using the forward and reverse primers, […] (SEQ. ID. NO: 3) and […] (SEQ. ID. NO: 4), and cloned into pcDNA3.1(−). The mouse MrgprA1 cDNA expression clone was purchased from ORIGENE Technologies. The mouse MrgprB2 coding sequences were PCR-amplified from mouse genomic DNA using the primer pair, […] (SEQ. ID. NO: 5) and […] (SEQ. ID. NO: 6), and cloned into pcDNA3.1 (−).
10 μg of expression vector (human MRGPRX2, mouse MrgprA1 or NK1) and 10 μl of LIPOFECTAMINE 2000 transfection reagent were diluted into 0.5 ml of DMEM and separately left at room temperature (RT) for 5 min. They were then mixed and incubated at RT for 20 minutes prior to being added to HeLa cells. HeLa cells were grown to confluence, trypsinized and 1×10^6 cells were pelleted in a 15 ml tube by centrifugation at 1000 rpm for 5 minutes. The DMEM-LIPOFECTAMINE 2000-DNA mixture (1 ml) was then added to the cell pellet, suspended and incubated at RT for 5 minutes. 2 ml of complete DMEM with 10% FBS without antibiotics were added to the tube, mixed by inverting the tube, plated into a 96-well glass bottom plate at 50,000 cells/well, and placed in a 37° C. CO2 incubator for 3 hours. HeLa cells transfected with salmon sperm DNA were plated as a control. The medium was changed after 3 hours and left in the incubator. 24 hours after transfection, the medium in the wells was removed and 100 μl of complete DMEM containing 2 μM of FURA-2 were added to each well and left at room temperature in the dark for 1 hr. Following loading with FURA-2, the medium was removed, washed with PBS and replaced with 90 μl of HEPES-buffered saline (20 mM HEPES, 115 mM NaCl, 5.4 mM KCl, 2 mM CaCl2, 0.8 mM MgCl2, 13.8 mM glucose, pH 7.4).
Calcium imaging was performed immediately after loading cells with Fura-2, using a ZEISS Axiovert 200M microscope platform equipped with a flipping filter wheel for ratiometric imaging. Axiovision software, version 4.6 was used for calcium image analysis of the cells excited at 340 nm and 380 nm. Agonists were added at 15 seconds after the start of the excitation procedure. Antagonists were added five minutes before imaging with the agonists. Images were taken every 5 seconds, including at zero time, during a 90 second period or longer if required. The software later analyzed all images taken during each excitation period. Ratiometric changes were measured in 10-20 cells in each individual experiment. An average of the fluorescence of the cells in each image was calculated and plotted against time in seconds.
Each of the concentration dependent readings was performed in triplicate. Maximum intensities at each of the dilutions were calculated and plotted against concentration using GraphPad Prism software. Error bars represent SEM.

inhibition of SP-induced activation of human MRGPRX2 (MrgX2 (human MRGPRX2)) | inhibition of hMRGPRX2 activation by compound 48/80 (MrgX2 (human MRGPRX2)) | inhibition of human MRGPRX2 activation by atracurium and ciprofloxacin (MrgX2 (human MRGPRX2); FIG. 8a) | activation of human MRGPRX2 by the substance (in words) (MrgX2 (human MRGPRX2); NPFF 50 μM, capsaicin 3 μM, SP at nanomolar concentrations) | Molecule | inhibition of activation of Mrgprs by SP (Mrgprs) | inhibition of activation of Mrgprs by SP (Mrgprs; listed as L733060) | inhibition of activation of Mrgprs by compound 48/80 (Mrgprs; FIG. 7b: compound 48/80 1 μM, QWF 1 μM)
did not impact | – | – | – | FC(F)(F)c1cc(CO[C@H]2CCCN[C@H]2c2ccccc2)cc(C(F)(F)F)c1 [L-733060] | did not impact | do not inhibit | –
did not impact | – | – | – | C[C@@H](O[C@H]1OCCN(Cc2n[nH]c(=O)[nH]2)[C@H]1c1ccc(F)cc1)c1cc(C(F)(F)F)cc(C(F)(F)F)c1 [aprepitant] | did not impact; also recorded: do not inhibit | – | –
– | – | – | activates | SLIGRL: tethered hexapeptide ligand of mouse PAR2 (SEQ ID NO: 7) | – | – | –

Molecule | inhibition of SP-induced activation of human MRGPRX2 (MrgX2 (human MRGPRX2)) | inhibition of hMRGPRX2 activation by compound 48/80 (MrgX2 (human MRGPRX2)) | inhibition of human MRGPRX2 activation by atracurium and ciprofloxacin (MrgX2 (human MRGPRX2); FIG. 8a) | activation of human MRGPRX2 by the substance (in words) (MrgX2 (human MRGPRX2); NPFF 50 μM, capsaicin 3 μM, SP at nanomolar concentrations) | inhibition of activation of Mrgprs by SP (Mrgprs) | inhibition of activation of Mrgprs by SP (Mrgprs; listed as L733060) | inhibition of activation of Mrgprs by compound 48/80 (Mrgprs; FIG. 7b: compound 48/80 1 μM, QWF 1 μM)
Boc-Gln-D-Trp(Formyl)-Phe benzyl ester trifluoroacetate [QWF] | excellent inhibitor; also recorded: potent antagonist; also recorded: inhibits | inhibits | antagonized; also recorded: inhibits | – | blocks | – | antagonizes; also recorded: inhibits

— patent US10426815B2, “Prevention and treatment of itch with an MRGPR antagonist” (THE GENERAL HOSPITAL CORPORATION, priority 2015, dated 2019)
